# Tested on: HIV-1 pseudotyped virus
# Assay: HIV-1 pseudotyped virus assay (luciferase reporter gene, single cycle of infection)
# Format: cell-based
# Settings: Human immunodeficiency virus 1, CCR5, 72 h, read-out: Activity (antiviral activity, IC50)
# Description: In this example are illustrated experimental procedures for determining biological activity, such as antiviral activity. For determining biological activity, an HIV-1 infection assay was used to determine the antiviral potency for compounds of the present invention.
# For determining biological activity, an HIV-1 pseudotyped virus assay was used to determine the respective antiviral potencies of each compound tested in the assay for comparison. The pseudotyped assay scores for a reduction in infection as indicated by decreased signal from the reporter gene encoding a luciferase enzyme (“reporter gene”). The assay employs cell lines expressing CD4 and either of the primary chemokine receptors (CCR5 or CXCR4) that HIV uses as a co-receptor (“target cells”). Pseudotyped virus was prepared by co-transfection of 293T cells with: 1) a plasmid construct carrying the HIV-1 envelope of choice, in combination with 2) a pseudotyped virus backbone construct in which (a) envelope expression has been abrogated due to a frameshift in the envelope sequence, and (b) the reporter gene replaces nef. Expression of HIV-1 envelope on 293T packaging cells results in the production of a pseudotyped virus carrying the reporter gene that is capable of a single cycle of infection.
# The compounds of the present invention being tested for antiviral activity were serially diluted and dose responses determined in duplicate in two separate experiments. The compounds to be tested were added directly to the plated, target cells, followed by the addition of pseudotyped virus described above. The cells were cultured for three days prior harvest. Media and compound were removed, the cell monolayer was washed, lysed by detergent, and then frozen at −80 degrees C. for a minimum of 30 minutes. Following thawing and acclimation to room temperature, luciferase production was quatified by injecting 100 […]I of a substrate (of the enzyme encoded by the reporter gene) into each well followed by detecting the signal (light emitted from the interaction between the enzyme and substrate) after 5 seconds. In the pseudotyped assay, a 50% reduction in signal is significant, and provides the primary cutoff value for assessing antiviral activity (“IC50” is defined as the dilution resulting in a 50% reduction in enzymatic activity as interpolated from a titration curve). Representative compounds according to the present invention, and their antiviral activity, are illustrated in Table 3.
row,SMILES,IC50
1,"C[C@@H]1CN(C(=O)c2ccccc2)CCN1S(=O)(=O)c1ccc(-c2csnn2)cc1 [Example 134, [(R)-3-methyl-4-(4-[1,2,3]thiadiazol-4-yl-benzenesulfonyl)-piperazin-1-yl]-phenyl-methanone]",> 5 µM
2,"CC1CN(C(=O)c2ccccc2)CCN1S(=O)(=O)c1ccc(-c2ccc3ccccc3n2)s1 (centres unmarked) [Example 135, (3-methyl-4-(5-(quinolin-2-yl)thiophen-2-ylsulfonyl)piperazin-1-yl)(phenyl)methanone]",> 5 µM
3,"Cc1ccc(C#N)c(-c2ccc(S(=O)(=O)N3CCN(C(=O)c4ccccc4)CC3C)s2)n1 (centres unmarked) [Example 136, 2-(5-(4-benzoyl-2-methylpiperazin-1-ylsulfonyl)thiophen-2-yl)-6-methylnicotinonitrile]",> 5 µM
4,"Cc1cccc(-c2ccc(S(=O)(=O)N3CCN(C(=O)c4ccccc4)CC3C)s2)n1 (centres unmarked) [Example 137, (3-methyl-4-(5-(6-methylpyridin-2-yl)thiophen-2-ylsulfonyl)piperazin-1-yl)(phenyl)methanone]",> 5 µM
5,"Cc1ccnc(-c2ccc(S(=O)(=O)N3CCN(C(=O)c4ccccc4)CC3C)s2)c1 (centres unmarked) [Example 138, (3-methyl-4-(5-(4-methylpyridin-2-yl)thiophen-2-ylsulfonyl)piperazin-1-yl)(phenyl)methanone]",> 5 µM
6,"Cc1cccnc1-c1ccc(S(=O)(=O)N2CCN(C(=O)c3ccccc3)CC2C)s1 (centres unmarked) [Example 139, (3-methyl-4-(5-(3-methylpyridin-2-yl)thiophen-2-ylsulfonyl)piperazin-1-yl)(phenyl)methanone]",> 5 µM
7,"CC1CN(C(=O)c2ccccc2)CCN1S(=O)(=O)c1ccc(-c2ncccn2)s1 (centres unmarked) [Example 141, (3-methyl-4-(5-(pyrimidin-2-yl)thiophen-2-ylsulfonyl)piperazin-1-yl)(phenyl)methanone]",< 5 µM
8,"CC1CN(C(=O)c2ccccc2)CCN1S(=O)(=O)c1ccc(-c2cccs2)s1 (centres unmarked) [Example 142, (4-(2,2′-bithiophen-5-ylsulfonyl)-3-methylpiperazin-1-yl)(phenyl)methanone]",< 5 µM
9,"CC1CN(C(=O)c2ccccc2)CCN1S(=O)(=O)c1ccc(-c2ccc(-c3ccon3)s2)s1 (centres unmarked) [Example 143, (4-(5′-(isoxazol-3-yl)-2,2′-bithiophen-5-ylsulfonyl)-3-methylpiperazin-1-yl)(phenyl)methanone]",> 5 µM
10,"CC1CN(C(=O)c2ccccc2)CCN1S(=O)(=O)c1ccc(-c2ccc(-c3ccno3)s2)s1 (centres unmarked) [Example 144, (4-(5′-(isoxazol-5-yl)-2,2′-bithiophen-5-ylsulfonyl)-3-methylpiperazin-1-yl)(phenyl)methanone]",< 5 µM
11,"CC1CN(C(=O)c2ccccc2)CCN1S(=O)(=O)c1ccc(-c2ccccc2)s1 (centres unmarked) [Example 145, (3-methyl-4-(5-phenylthiophen-2-ylsulfonyl)piperazin-1-yl)(phenyl)methanone]",> 5 µM
12,"Cc1ccc(-c2ccc(S(=O)(=O)N3CCN(C(=O)c4ccccc4)CC3C)s2)nn1 (centres unmarked) [Example 146, (3-methyl-4-(5-(6-methylpyridazin-3-yl)thiophen-2-ylsulfonyl)piperazin-1-yl)(phenyl)methanone]",> 5 µM
13,CC1CN(C(=O)c2ccccc2)CCN1S(=O)(=O)c1ccc(-c2ccc(C#N)cn2)s1 (centres unmarked) [Example 147],< 5 µM
14,"CC1CN(C(=O)c2ccccc2)CCN1S(=O)(=O)c1ccc(-c2ccncn2)s1 (centres unmarked) [Example 148, (3-methyl-4-(5-(pyrimidin-4-yl)thiophen-2-ylsulfonyl)piperazin-1-yl)(phenyl)methanone]",> 5 µM
15,"CC1CN(C(=O)c2ccccc2)CCN1S(=O)(=O)c1ccc(-c2cccnc2)s1 (centres unmarked) [Example 150, (3-methyl-4-(5-(pyridin-3-yl)thiophen-2-ylsulfonyl)piperazin-1-yl)(phenyl)methanone]",> 5 µM
16,"CC1CN(C(=O)c2ccccc2)CCN1S(=O)(=O)c1ccc(-c2ncnc3ccsc23)s1 (centres unmarked) [Example 151, (3-methyl-4-(5-(thieno[3,2-d]pyrimidin-4-yl)thiophen-2-ylsulfonyl)piperazin-1-yl)(phenyl)methanone]",> 5 µM
17,"CC1CN(C(=O)c2ccccc2)CCN1S(=O)(=O)c1ccc(-c2cc(-n3ccnc3)ncn2)s1 (centres unmarked) [Example 152, (4-(5-(6-(1H-imidazol-1-yl)pyrimidin-4-yl)thiophen-2-ylsulfonyl)-3-methylpiperazin-1-yl)(phenyl)methanone]",> 5 µM
18,"CC1CN(C(=O)c2ccccc2)CCN1S(=O)(=O)c1ccc(-c2ccncc2)s1 (centres unmarked) [Example 153, (3-methyl-4-(5-(pyridin-4-yl)thiophen-2-ylsulfonyl)piperazin-1-yl)(phenyl)methanone]",> 5 µM

row,SMILES,IC50
1,"CC1CN(C(=O)c2ccccc2)CCN1S(=O)(=O)c1ccc(-c2nncc3ccccc23)s1 (centres unmarked) [Example 154, (3-methyl-4-(5-(phthalazin-1-yl)thiophen-2-ylsulfonyl)piperazin-1-yl)(phenyl)methanone]",> 5 µM
2,"CC(=O)c1cccc(-c2ccc(S(=O)(=O)N3CCN(C(=O)c4ccccc4)CC3C)s2)n1 (centres unmarked) [Example 155, 1-(6-(5-(4-benzoyl-2-methylpiperazin-1-ylsulfonyl)thiophen-2-yl)pyridin-2-yl)ethanone]",> 5 µM
3,"CC1CN(C(=O)c2ccccc2)CCN1S(=O)(=O)c1ccc(-c2ccc(-c3ccccc3)nn2)s1 (centres unmarked) [Example 156, (3-methyl-4-(5-(6-phenylpyridazin-3-yl)thiophen-2-ylsulfonyl)piperazin-1-yl)(phenyl)methanone]",> 5 µM
4,"CC1CN(C(=O)c2ccccc2)CCN1S(=O)(=O)c1ccc(-c2ncccc2C(F)(F)F)s1 (centres unmarked) [Example 157, (3-methyl-4-(5-(3-(trifluoro-methyl)pyridin-2-yl)thiophen-2-ylsulfonyl)piperazin-1-yl)(phenyl)methanone]",> 5 µM
5,"Cc1nc2cc(-c3ccc(S(=O)(=O)N4CCN(C(=O)c5ccccc5)CC4C)s3)ccc2s1 (centres unmarked) [Example 158, (3-methyl-4-(5-(2-methylbenzo[d]thiazol-5-yl)thiophen-2-ylsulfonyl)piperazin-1-yl)(phenyl)methanone]",> 5 µM
6,"C[C@@H]1CN(C(=O)c2ccccc2)CCN1S(=O)(=O)c1ccc(-c2csnn2)s1 [Example 165, [(R)-3-Methyl-4-(5-[1,2,3]thiadiazol-4-yl-thiophene-2-sulfonyl)-piperazin-1-yl]-phenyl-methanone]",> 5 µM
7,"CC1CN(C(=O)c2ccccc2)CCN1S(=O)(=O)c1ccc(-c2cnco2)cc1 (centres unmarked) [Example 166, [3-Methyl-4-(4-oxazol-5-yl-benzenesulfonyl)-piperazin-1-yl]-phenyl methanone]",> 5 µM
8,"C[C@@H]1CN(C(=O)c2ccccc2)CCN1S(=O)(=O)c1ccc(-c2cc(C(F)(F)F)on2)s1 [Example 167, [(R)-3-Methyl-4-(5-[(5-trifluoromethyl)-isoxazol-3-yl]-thiophene-2-sulfonyl)-piperazin-1-yl]-phenyl-methanone]",> 5 µM
9,"C[C@@H]1CN(C(=O)c2ccccc2)CCN1S(=O)(=O)c1ccc(-c2ccccn2)s1 [Example 168, [(R)-3-Methyl-4-(5-pyridinyl-2-yl-thiophene-2-sulfonyl)-piperazin-1-yl]-phenyl-methanone]",> 5 µM
10,"CC1CN(C(=O)c2ccccc2)CCN1C(=O)C(=O)c1ccc(-c2ccn[nH]2)cc1 (centres unmarked) [Example 169, 1-(4-Benzoyl-2-methyl-piperazin-1-yl)-2-[4-(2H-pyrazol-3-yl)-phenyl]-ethane-1,2-dione]",< 5 µM
11,"CC1CN(C(=O)c2ccccc2)CCN1C(=O)C(=O)c1ccc(-n2cncn2)cc1 (centres unmarked) [Example 170, 1-(4-Benzoyl-2-methyl-piperazin-1-yl)-2-(4-[1,2,4]triazol-1-yl-phenyl)-ethane-1,2-dione]",< 5 µM
12,"CC1CN(C(=O)c2ccccc2)CCN1C(=O)C(=O)c1ccc(-c2ccco2)cc1 (centres unmarked) [Example 171, 1-(4-Benzoyl-2-methyl-piperazin-1-yl)-2-(4-furan-2-yl-phenyl)-ethane-1,2-dione]",< 5 µM
13,"CC1CN(C(=O)c2ccccc2)CCN1C(=O)C(=O)c1ccc(-c2ccn(C)n2)cc1 (centres unmarked) [Example 172, 1-(4-Benzoyl-2-methyl-piperazin-1-yl)-2-[4-(1-methyl-1H-pyrazol-3-yl)-phenyl]-ethane-1,2-dione]",< 5 µM
14,"Cc1ccc(-c2ccc(C(=O)C(=O)N3CCN(C(=O)c4ccccc4)CC3C)cc2)o1 (centres unmarked) [Example 173, 1-(4-Benzoyl-2-methyl-piperazin-1-yl)-2-[4-(5-methyl-furan-2-yl)-phenyl]-ethane-1,2-dione]",< 5 µM
15,"CC1CN(C(=O)c2ccccc2)CCN1C(=O)C(=O)c1ccc(-n2nccn2)cc1 (centres unmarked) [Example 174, 1-(4-Benzoyl-2-methyl-piperazin-1-yl)-2-(4-[1,2,3]triazol-2-yl-phenyl)-ethane-1,2-dione]",< 5 µM
16,COc1cc(C(=O)C(=O)N2CCN(C(=O)c3ccccc3)C[C@H]2C)ccc1-c1cnco1 [Example 175],< 5 µM
17,C[C@@H]1CN(C(=O)c2ccccc2)CCN1C(=O)C(=O)c1ccc(-c2cncs2)cc1 [Example 176],< 5 µM

# Reference: patent US20070259879A1, “Piperazine and piperidine biaryl derivatives” (priority 2006, published 2007)
